# Results from patent US11013235B2 (priority 2015, dated 2021).
# Where two headings read alike, the source gives them in different places.
# Tests used:
# Format in all cases: in vivo
# [1] = test system: Candidatus 'Liberibacter asiaticus'; conditions: spraying every 15 days, 12 months after treatment, Citrus sinensis with HLB
# [2] = test system: Candidatus 'Liberibacter asiaticus'; conditions: 1 μM spray, during 6 months, diseased citrus plants
# Phytophthora parasitica = test: Control of Phytophthora parasitica disease in tobacco (Pp-Nt); conditions: 1 μM spraying every 24 hours for one week, water control 91
# Rhizoctonia solani [3] = test: Control of Rhizoctonia solani disease in tobacco (Rs-Nt); conditions: 1 μM spraying every 24 hours for one week, water control 87
# Nocardia sp = test: Control of Nocardia sp disease in tobacco (N-Nt); conditions: 1 μM spraying every 24 hours for one week, water control 58
# Summary of the method: (§1)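 Fifty pre-inoculated plants per treatment received 1 μM compound sprays daily for a week; water-sprayed plants served as controls. Disease scored as plant mortality (Nocardia), share of leaves with symptoms (A. solani) or lesion diameter (B. cinerea).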
# Rhizoctonia solani [4] = test: Control of Rhizoctonia solani disease in tomato (Rs-SI); conditions: 1 μM spraying every 24 hours for one week, water control 96
# Alternaria solani = test: Control of Alternaria solani disease in tomato (As-SI); conditions: 1 μM spraying every 24 hours for one week, water control 68
# Summary of the method: as §1
# Botrytis cinerea [5] = test: Control of Botrytis cinerea disease in Arabidopsis (Bc-At); conditions: 1 μM spraying every 24 hours for one week, water control 8.7
# Summary of the method: as §1
# Botrytis cinerea [6] = test: Control of Botrytis cinerea disease in tobacco (Bc-Nt); conditions: 1 μM spraying every 24 hours for one week, water control 6.7
# Summary of the method: as §1
# Botrytis cinerea [7] = test: Control of Botrytis cinerea disease in tomato (Bc-SI); conditions: 1 μM spraying every 24 hours for one week, water control 7.4
# Summary of the method: as §1
# Radopholus similis = test: Nematode control, nodules per plant: Radopholus similis; conditions: 1 μM foliar application every 5 days, evaluation 35 days after, control 45
# Summary of the method: (§2)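 Each compound was dissolved in ethanol, then diluted with water to 1 μM. Only the leaves were sprayed, with applications repeated every 5 days on ten plants per treatment. After 35 days, nodules per plant were quantified.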
# Meloidogyne incognita = test: Nematode control, nodules per plant: Meloidogyne incognita; conditions: 1 μM foliar application every 5 days, evaluation 35 days after, control 34
# Summary of the method: as §2
# Pratylenchus coffeae = test: Nematode control, nodules per plant: Pratylenchus coffeae; conditions: 1 μM foliar application every 5 days, evaluation 35 days after, control 42
# Summary of the method: as §2
SMILES,Titers of the bacterium ([1]; 0.001 μM) [copies per reaction],Titers of the bacterium ([1]; 0.01 μM) [copies per reaction],Titers of the bacterium ([1]; 1 μM) [copies per reaction],Titers of the bacterium ([1]; 5 μM) [copies per reaction],Titers of the bacterium ([1]; 10 μM) [copies per reaction],"Levels of the bacterium, application once a month compared to twice a month [2]",Bacterial reduction ([2]; once and twice a month),Pp-Nt: percentage of mortality (Phytophthora parasitica) [%],Rs-Nt: percentage of mortality (Rhizoctonia solani [3]) [%],N-Nt: percentage of mortality (Nocardia sp) [%],Rs-SI: percentage of mortality (Rhizoctonia solani [4]) [%],As-SI: percentage of leaves with the disease symptoms (Alternaria solani) [%],Bc-At: mean of the diameter of the lesion (Botrytis cinerea [5]) [mm],Bc-Nt: mean of the diameter of the lesion (Botrytis cinerea [6]) [mm],Bc-SI: mean of the diameter of the lesion (Botrytis cinerea [7]) [mm],Rs: number of nodules per plant (Radopholus similis),Mi: number of nodules per plant (Meloidogyne incognita),Pc: number of nodules per plant (Pratylenchus coffeae)
"O=C(CCc1cc2cc3c(-c4ccccc4)coc3cc2oc1=O)NCC(O)CO (stereo not shown) [IB, N-(2,3-dihydroxypropyl)-3-{2-oxo-6-phenyl-2H-furo[3,2-g]chromen-3-yl}propanamide]",598,15,0,98,9751,reduced significantly,bacterial reduction was observed in both tested variants,2,3,1,2,2,1.1,2.0,1.6,24,3,13
"O=C(CC1COc2ccc(C(=O)Nn3cccc3)cc2N1)NC(CO)CO (stereo not shown) [VK, 3-{[(1,3-dihydroxypropan-2-yl)carbamoyl]methyl}-N-(1H-pyrrol-1-yl)-3,4-dihydro-2H-1,4-benzoxazine-6-carboxamide]",435,0,0,45,2547,–,–,0,0,0,0,7,1.1,2.0,1.6,0,0,0
